System: 188146-221-R-J1-PDC complex spheroid viability
Assay: Anticancer human tumor 188146-221-R-J1-PDC patient-derived colon adenocarcinoma cell line growth inhibition [POLQ]
Conditions: for IC50: curve of first compound; for viability, T/C: stronger effect = lower value
Method in brief: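 Growth inhibition in 3D: complex spheroids (tumor PDC, HUVEC, MSC) treated with POLQ inhibitor combinations; where Cmax unknown, highest tested concentration 10 microM, except SN-38 at 1 microM.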

[1] = second compound 0.0316 µM, first compound 0.0316 µM
[2] = second compound 0.0316 µM, first compound 0.1 µM
[3] = second compound 0.1 µM, first compound 0.0316 µM
[4] = second compound 0.1 µM, first compound 0.1 µM
[5] = second compound 0.316 µM, first compound 0.0316 µM
[6] = second compound 0.316 µM, first compound 0.1 µM
[7] = second compound 1 µM, first compound 0.0316 µM
[8] = second compound 1 µM, first compound 0.1 µM
[9] = second compound 3.16 µM, first compound 0.0316 µM
[10] = second compound 3.16 µM, first compound 0.1 µM
[11] = second compound 10 µM, first compound 0.0316 µM
[12] = second compound 10 µM, first compound 0.1 µM
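Note: spheroids exposed to compounds for seven days.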
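Throughout, for viability, T/C: 100% = DMSO vehicle control viability.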

Cn1ncnc1[C@H]1c2n[nH]c(=O)c3cc(F)cc(c23)N[C@@H]1c1ccc(F)cc1 + Cc1cccc(N(C)C(=O)C2C(O)CCN2c2nc(C)cc(C(F)(F)F)c2C#N)c1 showed an IC50 (second compound 0.0316 µM) of over 100 nM, an IC50 (second compound 0.1 µM) of over 100 nM and an IC50 (second compound 0.316 µM) of over 100 nM. It also gave an IC50 (second compound 1 µM) of over 100 nM, an IC50 (second compound 3.16 µM) of over 100 nM and an IC50 (second compound 10 µM) of over 100 nM. For the same molecule, the viability, T/C (second compound 0.0316 µM, first compound 0.000316 µM) was 97.2%, the viability, T/C (second compound 0.0316 µM, first compound 0.001 µM) was 97.4% and the viability, T/C (second compound 0.0316 µM, first compound 0.00316 µM) was 91.8%. For the same molecule, the viability, T/C (second compound 0.0316 µM, first compound 0.01 µM) was 98.3%, the viability, T/C [1] was 99.3% and the viability, T/C [2] was 88%. For the same molecule, the viability, T/C (second compound 0.1 µM, first compound 0.000316 µM) was 106%, the viability, T/C (second compound 0.1 µM, first compound 0.001 µM) was 107% and the viability, T/C (second compound 0.1 µM, first compound 0.00316 µM) was 101%. The viability, T/C (second compound 0.1 µM, first compound 0.01 µM) was 84.8%, the viability, T/C [3] was 89.9% and the viability, T/C [4] was 103%. For the same molecule, the viability, T/C (second compound 0.316 µM, first compound 0.000316 µM) was 101%, the viability, T/C (second compound 0.316 µM, first compound 0.001 µM) was 104% and the viability, T/C (second compound 0.316 µM, first compound 0.00316 µM) was 101%. For the same molecule, the viability, T/C (second compound 0.316 µM, first compound 0.01 µM) was 101%, the viability, T/C [5] was 90.8% and the viability, T/C [6] was 104%. For the same molecule, the viability, T/C (second compound 1 µM, first compound 0.000316 µM) was 107%, the viability, T/C (second compound 1 µM, first compound 0.001 µM) was 99.6% and the viability, T/C (second compound 1 µM, first compound 0.00316 µM) was 105%. The viability, T/C (second compound 1 µM, first compound 0.01 µM) was 102%, the viability, T/C [7] was 89% and the viability, T/C [8] was 93.5%. The viability, T/C (second compound 3.16 µM, first compound 0.000316 µM) was 100%, the viability, T/C (second compound 3.16 µM, first compound 0.001 µM) was 105% and the viability, T/C (second compound 3.16 µM, first compound 0.00316 µM) was 95.4%. The viability, T/C (second compound 3.16 µM, first compound 0.01 µM) was 90%, the viability, T/C [9] was 95.4% and the viability, T/C [10] was 94.2%. For the same molecule, the viability, T/C (second compound 10 µM, first compound 0.000316 µM) was 96.4%, the viability, T/C (second compound 10 µM, first compound 0.001 µM) was 91.8% and the viability, T/C (second compound 10 µM, first compound 0.00316 µM) was 90.6%. It also gave a viability, T/C (second compound 10 µM, first compound 0.01 µM) of 87.8%, a viability, T/C [11] of 90.8% and a viability, T/C [12] of 94.6%.
Work on COc1cccc2c1C(=O)c1c(O)c3c(c(O)c1C2=O)CC(O)(C(=O)CO)CC3OC1CC(N)C(O)C(C)O1 (centres undefined) + COC1C(OC(N)=O)C(O)C(Oc2ccc3c(O)c(NC(=O)c4ccc(O)c(CC=C(C)C)c4)c(=O)oc3c2C)OC1(C)C yielded an IC50 (second compound 0.0316 µM) of 154 nM, an IC50 (second compound 0.1 µM) of 143 nM and an IC50 (second compound 0.316 µM) of 162 nM. It also gave an IC50 (second compound 1 µM) of 145 nM, an IC50 (second compound 3.16 µM) of 106 nM and an IC50 (second compound 10 µM) of 151 nM. The viability, T/C [1] was 90.2%, the viability, T/C [2] was 59.5% and the viability, T/C (second compound 0.0316 µM, first compound 0.316 µM) was 33.8%. The viability, T/C (second compound 0.0316 µM, first compound 1 µM) was 13.1%, the viability, T/C (second compound 0.0316 µM, first compound 3.16 µM) was 0.29% and the viability, T/C (second compound 0.0316 µM, first compound 10 µM) was 0.43%. For the same molecule, the viability, T/C [3] was 91.8%, the viability, T/C [4] was 57.5% and the viability, T/C (second compound 0.1 µM, first compound 0.316 µM) was 32.5%. The viability, T/C (second compound 0.1 µM, first compound 1 µM) was 11.4%, the viability, T/C (second compound 0.1 µM, first compound 3.16 µM) was 0.37% and the viability, T/C (second compound 0.1 µM, first compound 10 µM) was 0.4%. The viability, T/C [5] was 92.7%, the viability, T/C [6] was 61.1% and the viability, T/C (second compound 0.316 µM, first compound 0.316 µM) was 34%. The viability, T/C (second compound 0.316 µM, first compound 1 µM) was 16.4%, the viability, T/C (second compound 0.316 µM, first compound 3.16 µM) was 0.2% and the viability, T/C (second compound 0.316 µM, first compound 10 µM) was 0.41%. It also gave a viability, T/C [7] of 94.9%, a viability, T/C [8] of 54% and a viability, T/C (second compound 1 µM, first compound 0.316 µM) of 40.1%. For the same molecule, the viability, T/C (second compound 1 µM, first compound 1 µM) was 9.16%, the viability, T/C (second compound 1 µM, first compound 3.16 µM) was 0.41% and the viability, T/C (second compound 1 µM, first compound 10 µM) was 0.44%. The viability, T/C [9] was 85.3%, the viability, T/C [10] was 47.1% and the viability, T/C (second compound 3.16 µM, first compound 0.316 µM) was 35.4%. The viability, T/C (second compound 3.16 µM, first compound 1 µM) was 8.24%, the viability, T/C (second compound 3.16 µM, first compound 3.16 µM) was 0.22% and the viability, T/C (second compound 3.16 µM, first compound 10 µM) was 0.55%. It also gave a viability, T/C [11] of 77.9%, a viability, T/C [12] of 56.6% and a viability, T/C (second compound 10 µM, first compound 0.316 µM) of 36.5%. For the same molecule, the viability, T/C (second compound 10 µM, first compound 1 µM) was 9.76%, the viability, T/C (second compound 10 µM, first compound 3.16 µM) was 0.33% and the viability, T/C (second compound 10 µM, first compound 10 µM) was 0.51%.

Reference: PubChem BioAssay AID1963851 (Molecular Pharmacology Branch, DTP, NCI, 2024)
